Test results as given in patent US10016409B2, “Method for improving interstitial flow” (priority 2012, dated 2018).
Several values for one entry are separate records, joined by “and”; a condition that tells them apart may be missing. Equal values may be shown once.

Key:
Tg-SwDI mice [1] = experiment: Cerebrovascular diameter increase under acetylcholine administration to the brain surface; assay type: in vivo; conditions: acetylcholine 100 μM perfused, vs ordinary feed
Description: In the brain interstitial flow in a central nervous system, vascular wall motion due to artery vascular pulsation serves as a driving force so that harmful proteins are excreted. Dilation of artery in vascular pulsation occurs when the blood pressure in artery increases due to pulsation of heart. A decrease in dilation ability of artery attenuates vascular wall motion, and reduces the interstitial flow accordingly. In the presence of aged mice and cerebral amyloid angiopathy, vascular elasticity (flexibility) of cerebral artery considerably decreases, and vascular wall motion attenuates. Thus, the ability of excretion of harmful proteins deteriorates. In this study, the influence of cilostazol administration on vascular elasticity ability under acetylcholine administration was examined.
It is known that acetylcholine has the physiological action of improving vascular elasticity. […]
In a manner similar to section (1) regarding vascular elasticity enhancement by cilostazol discussed above, model mice (Tg-SwDI mice) (Davis et al, 2004) showing pathological changes, especially cerebral amyloid angiopathy, were used. […] Cerebral blood vessels were visualized with FITC-dextran, and the rate of change in vessel diameter from a time before administration to 3 minutes after the start of administration was analyzed. […]

dementia patients = experiment: Clinical record analysis, MMSE change in dementia patients (MMSE less than or equal to 21) under donepezil hydrochloride oral administration; assay type: in vivo, human; conditions: dementia patients oral-administered with donepezil hydrochloride
Description: Patients subjected to oral administration of donepezil hydrochloride, having an observation period of one or more years before the MMSE test date, and having first MMSE scores less than or equal to 26 were picked up from a clinical record. Among the patients, patients recorded to have been consecutively administered with cilostazol for 6 months or more in the observation period were classified as a donepezil hydrochloride and cilostazol combined use group (69 cases), and patients recorded to have experienced no cilostazol oral administration were classified as a donepezil hydrochloride single use group (87 cases). Cilostazol was oral-administered at a dosage of 50 to 200 mg/day in the morning and evening, and donepezil hydrochloride was administered at a dosage of 5 mg/day once in a day.
As a dementia patient group oral-administered with donepezil hydrochloride, patients with MMSE scores less than or equal to 21 were extracted. Then, the donepezil hydrochloride single use group (the single use group) was 51 cases (17 males and 34 females, average age: 78.2 years old) and the donepezil hydrochloride and cilostazol combined use group (the combined use group) was 35 cases (14 males and 21 females, average age: 79.3 years old). The average dosage of cilostazol in the combined use group was 139 mg/day.

MCI patients = experiment: Retrospective clinical survey, MMSE change in patients with first MMSE score 22 to 26 (MCI), no anti-dementia drugs; assay type: in vivo, human
Description: Harmful proteins such as tau protein, α-synuclein protein, amyloid β protein, and ubiquitinated protein, which cause disorders in nerve function, are gradually accumulated in the brain with age. Irrespective of the type of accumulated harmful proteins, mild disorders in cognitive function is observed in an initial stage. However, in this stage, irreversible neuron degeneration in cranial nerve tissues has been seldom observed yet. Thus, activation of the interstitial flow, which is one of major drainage pathways of harmful proteins, might cure mild disorders of cognitive function. To examine this hypothesis, it was evaluated how consecutive oral administration of cilostazol affects cognitive functions of patients having MMSE scores greater than or equal to 22 and less than or equal to 26 and suspected to have mild deterioration of cognitive function.
A survey was conducted on consecutive cases (3183 cases in total) between 1996 and 2012 whose records of cilostazol administration exist, and examination using all the cases that match the following conditions was carried out. In this examination, to eliminate the influence of anti-dementia drugs, all the patients administered with anti-dementia drugs such as donepezil were removed from the analysis.
(i) The mini mental state exam (MMSE), which is a typical test of cognitive function, was performed twice or more with an interval of 6 months or more a case where the MMSE was performed three or more times, two examination results of the first examination and the last examination were selected);
(ii) The first MMSE score was greater than or equal to 22 and less than or equal to 26;
(iii) A case in which cilostazol was administered in a period at least more than a half of an MMSE observation period was selected as a group (hereinafter referred to as a treated group) subjected to consecutive treatment; and
(iv) A case in which cilostazol was administered in two months or less in the MMSE observation period was selected as a group (hereinafter referred to as an untreated group) not subjected to consecutive treatment.
(i) The rate of change in MMSE scores in each group (calculation method: [last MMSE score−first MMSE score]/MMSE observation period [years]); and
(ii) The rate of change in scores in each item of the MMSE test in each group (calculation method: [score of last MMSE test item−score of first MMSE test item]/MMSE observation period [years]).
In comparison between the two groups, statistical analysis was conducted such that the rate difference was obtained by using a chi-square test and other items were obtained by using a t test.

Tg-SwDI mice [2] = experiment: Drainage of injected fluorescent label Aβ1-40 through perivascular interstitial fluid pathway; assay type: in vivo; conditions: single images FIGS. 8 to 10, 30 minutes after injection into striate, cilostazol-containing feed group
Description: To verify interstitial flow improvement by cilostazol, harmful protein drainage facilitation by cilostazol was examined by using a cerebral amyloid angiopathy model. Totally unlike a drainage system through a specific receptor or antigen-antibody reaction, drainage of harmful proteins through the interstitial flow is a general drainage system irrespective of the type and amount of proteins, and Aβ in these examples is merely an example of intracerebral harmful proteins for which the interstitial flow is improved so that drainage is facilitated.
After 15 months from the start of breeding, with respect to Tg-SwDI mice (n=4) of a group administered with cilostazol-containing feed for 13.5 months and Tg-SwDI mice (n=3) of the ordinary feed administered group, Tg-SwDI mice were placed at the prone position under inhalation anesthesia using 1.5% isoflurane, midline incision of scalp was performed, and then, by using a 32 G micropipet, such that a fluorescent label Aβ1-40 was injected for 30 seconds in the manner of stereotaxy into the striate of Tg-SwDI mice (a front part of 0.98 mm and a side part of 1.5 mm in bregma) as indicated by the arrow in FIG. 7. The depth from the brain surface to the injection site of the striate was 3.0 mm, and the fluorescent label Aβ1-40 was purchased from AnaSpec (San Jose, Calif., USA). […]

SMILES: O=C1CCc2cc(OCCCCc3nnnn3C3CCCCC3)ccc2N1 [cilostazol, 6-[4-(1-cyclohexyl-1H-tetrazole-5-yl)butoxy]3,4-dihydrocarbostyril]
- relative increase in cerebrovascular diameter under acetylcholine administration (Tg-SwDI mice [1]; cilostazol-containing feed for 8 months, age 12 months, FIG. 23): dilated
- relative increase in cerebrovascular diameter under acetylcholine administration (Tg-SwDI mice [1]; cilostazol-containing feed for 13.5 months, age 15 months, FIG. 24): dilated
- effectiveness for dementia (dementia patients): no effectiveness for dementia
- increase in MMSE scores (treated vs untreated group) (MCI patients; MCI patients, as described in Example (4)): about 4
- rate of change in MMSE score (MCI patients; MCI treated group (31 cases), first MMSE 22-26, average±standard error, P=0.007 vs untreated): 0.4±0.7 per year
- rate of change in MMSE item 5 of delayed recall (MCI patients; MCI treated group, score change/observation period [years], P=0.004 vs untreated): 0.16±0.13
- rate of change in MMSE item 9 of command with sentence (MCI patients; MCI treated group, score change/observation period [years], P=0.008 vs untreated): 0.01±0.06
- rate of change in MMSE item 11 of visual configuration (MCI patients; MCI treated group, score change/observation period [years], P=0.02 vs untreated): 0.03±0.08
- rate of change in MMSE item 1 of orientation to time (MCI patients; MCI treated group, score change/observation period [years], P=0.03 vs untreated): −0.13±0.16
- side effects leading to no consecutive cilostazol treatment (MCI patients; untreated group of MCI survey): side effects such as diarrhea and headaches
- distance of fluorescent label Aβ1-40 accumulation site of a leptomeninges vessel from the injection site (Tg-SwDI mice [2]): 2922 μm and 3422 μm and 3507 μm
